Source: patent US20240228555A9, “ANTIMICROBIAL PEPTIDOMIMETICS” (Basilea Pharmaceutica International AG, Allschwil, priority 2020, published 2024)
Where a SMILES comes first, the peptide text is derived from it.

Key:
[1] = test system: human red blood cells (hRBC); assay type: cell-based; conditions: red cells of human, 1 h, 0.2 g/L
Outline: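 Percent lysis was derived from supernatant absorbance at 540 nm relative to full lysis by 2.5% Triton X-100 (PBS defines 0%). Compounds, 200 μg/mL, were exposed for 1 h at 37° C to a 20% (v/v) suspension of washed human red cells.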

[2] = test system: Klebsiella pneumoniae SSI3010; conditions: SSI3010
Outline: (§1)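 Standardized inocula (0.5 McFarland in saline, then diluted in MHII broth to approximately 5×10^5 CFU/mL) were exposed to two-fold dilution series of each peptide in the presence of polysorbate 80 (0.002% final).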

[3] = test system: Escherichia coli ATCC 25922; conditions: ATCC 25922
Outline: as §1

[4] = test system: Escherichia coli MCR-1 Af 45; conditions: Mueller-Hinton broth II, no visible growth after 18-20 hours at 35° C.
Outline: as §1

| Compound | Hemolysis at 0.2 g/L [1] [%] | Klebsiella pneumoniae SSI3010 MIC [2] [µg/mL] | Escherichia coli ATCC 25922 MIC [3] [µg/mL] | Escherichia coli MCR-1 Af 45 MIC [4] [µg/mL] |
| --- | --- | --- | --- | --- |
| CC[C@H](C)[C@H](NC(=O)[C@@H](NC(=O)[C@@H]1C[C@@H](O)CN1C(=O)[C@@H](N)C(C)C)[C@@H](C)CC)C(=O)N[C@@H](Cc1ccc(O)cc1)C(=O)N[C@@H]1C(=O)N[C@@H](CC(N)=O)C(=O)N[C@@H](CCCNC(=N)N)C(=O)N[C@@H](CCN)C(=O)N[C@@H]([C@@H](C)O)C(=O)N[C@H](CCN)C(=O)N[C@@H](CO)C(=O)N[C@H](C(=O)N[C@@H](CCN)C(=O)N[C@@H](CCCNC(=N)N)C(=O)N[C@@H](Cc2ccc(O)cc2)C(=O)O)CSSC1(C)C [Example 101, Val-Hyp-Ile-Ile-Tyr-Pen-Asn-Arg-Dab-Thr-^DDab-Cys-Dab-Arg-Tyr] | <1 | 0.25 | 0.125 | 0.125 |
| CC[C@H](C)[C@H](NC(=O)[C@@H](NC(=O)[C@@H]1C[C@@H](O)CN1C(=O)[C@@H](N)C(C)C)[C@@H](C)CC)C(=O)N[C@@H](Cc1ccc(O)cc1)C(=O)N[C@@H]1C(=O)N[C@@H](CC(N)=O)C(=O)N[C@@H](CCCNC(=N)N)C(=O)N[C@@H](CCN)C(=O)N[C@@H]([C@@H](C)O)C(=O)N[C@H](CCN)C(=O)N[C@@H]([C@@H](C)CC)C(=O)N[C@H](C(=O)N[C@@H](CCN)C(=O)N[C@@H](CCN)C(=O)N[C@@H](Cc2ccc(O)cc2)C(=O)O)CSSC1(C)C [Example 83, Val-Hyp-Ile-Ile-Tyr-Pen-Asn-Arg-Dab-Thr-^DDab-Ile-Cys-Dab-Dab-Tyr] (HELM PEPTIDE1{V.[Hyp].I.I.Y.[Pen].N.R.[Dab].T.[NCC[C@@H](N[*:1])C(=O)[*:2]].I.C.[Dab].[Dab].Y}$PEPTIDE1,PEPTIDE1,6:R3-13:R3$$$V2.0) | <1 | 0.5 | 0.25 | 0.25 |
| CC[C@H](C)[C@@H]1NC(=O)[C@@H](NC(=O)[C@H](Cc2ccc(O)cc2)NC(=O)[C@@H](NC(=O)[C@@H](NC(=O)[C@@H]2C[C@@H](O)CN2C(=O)[C@@H](N)C(C)C)[C@@H](C)CC)[C@@H](C)O)C(C)(C)SSC[C@@H](C(=O)N[C@@H](CCN)C(=O)N[C@@H](CCCNC(=N)N)C(=O)N[C@@H](Cc2ccc(O)cc2)C(=O)O)NC(=O)[C@H](CCCN)NC(=O)[C@@H](CCN)NC(=O)[C@H]([C@@H](C)O)NC(=O)[C@H](CCN)NC(=O)[C@H](CCCNC(=N)N)NC1=O [Example 123, Val-Hyp-Ile-Thr-Tyr-Pen-Ile-Arg-Dab-Thr-^DDab-Orn-Cys-Dab-Arg-Tyr] (HELM PEPTIDE1{V.[Hyp].I.T.Y.[Pen].I.R.[Dab].T.[NCC[C@@H](N[*:1])C(=O)[*:2]].[Orn].C.[Dab].R.Y}$PEPTIDE1,PEPTIDE1,6:R3-13:R3$$$V2.0) | <1 | 0.125 | 0.0625 | 0.125 |
| CC[C@H](C)[C@H](NC(=O)[C@@H]1C[C@@H](N)CN1C(=O)[C@@H](N)C(C)C)C(=O)N[C@H](C(=O)N[C@@H](Cc1ccc(O)cc1)C(=O)N[C@@H]1C(=O)N[C@@H](CC(N)=O)C(=O)N[C@@H](CCCNC(=N)N)C(=O)N[C@@H](CCN)C(=O)N[C@@H]([C@@H](C)O)C(=O)N[C@H](CCN)C(=O)N[C@@H](CCCNC(N)=O)C(=O)N[C@H](C(=O)N[C@@H](CCN)C(=O)N[C@H](C(=O)N[C@@H](Cc2ccc(O)cc2)C(=O)O)[C@@H](C)O)CSSC1(C)C)[C@@H](C)O [Example 116, Val-Pro((4R)NH2)-Ile-Thr-Tyr-Pen-Asn-Arg-Dab-Thr-^DDab-Cit-Cys-Dab-Thr-Tyr] (HELM PEPTIDE1{V.[N[C@@H]1C[C@@H](C(=O)[*:2])N([*:1])C1].I.T.Y.[Pen].N.R.[Dab].T.[NCC[C@@H](N[*:1])C(=O)[*:2]].[Cit].C.[Dab].T.Y}$PEPTIDE1,PEPTIDE1,6:R3-13:R3$$$V2.0) | <1 | 0.5 | 0.25 | 0.25 |
| CC[C@H](C)[C@H](NC(=O)[C@@H]1C[C@@H](N)CN1C(=O)[C@@H](N)C(C)C)C(=O)N[C@H](C(=O)N[C@@H](Cc1ccc(O)cc1)C(=O)N[C@@H]1C(=O)N[C@@H](CC(N)=O)C(=O)N[C@@H](CCCNC(=N)N)C(=O)N[C@@H](CCN)C(=O)N[C@@H]([C@@H](C)O)C(=O)N[C@H](CCN)C(=O)N[C@@H](CCCCN)C(=O)N[C@H](C(=O)N[C@@H](CO)C(=O)N[C@@H](CCCNC(=N)N)C(=O)N[C@@H](Cc2ccc(O)cc2)C(=O)O)CSSC1(C)C)[C@@H](C)O [Example 110, Val-Pro((4R)NH2)-Ile-Thr-Tyr-Pen-Asn-Arg-Dab-Thr-^DDab-Lys-Cys-Ser-Arg-Tyr] (HELM PEPTIDE1{V.[N[C@@H]1C[C@@H](C(=O)[*:2])N([*:1])C1].I.T.Y.[Pen].N.R.[Dab].T.[NCC[C@@H](N[*:1])C(=O)[*:2]].K.C.S.R.Y}$PEPTIDE1,PEPTIDE1,6:R3-13:R3$$$V2.0) | <1 | 0.5 | 0.5 | 0.125 |
| CC[C@H](C)[C@H](NC(=O)[C@@H]1C=CCN1C(=O)[C@@H](N)C(C)C)C(=O)N[C@H](C(=O)N[C@@H](Cc1ccc(O)cc1)C(=O)N[C@@H]1C(=O)N[C@@H](CC(N)=O)C(=O)N[C@@H](CCCNC(=N)N)C(=O)N[C@@H](CCN)C(=O)N[C@@H]([C@@H](C)O)C(=O)N[C@H](CCN)C(=O)N[C@@H](CCCCN)C(=O)N[C@H](C(=O)N[C@@H](CCN)C(=O)N[C@@H](CCCNC(=N)N)C(=O)N[C@@H](Cc2ccc(O)cc2)C(=O)O)CSSC1(C)C)[C@@H](C)O [Example 128, Val-Pro(3,4dehydro)-Ile-Thr-Tyr-Pen-Asn-Arg-Dab-Thr-^DDab-Lys-Cys-Dab-Arg-Tyr] (HELM PEPTIDE1{V.[O=C([C@@H]1C=CCN1[*:1])[*:2]].I.T.Y.[Pen].N.R.[Dab].T.[NCC[C@@H](N[*:1])C(=O)[*:2]].K.C.[Dab].R.Y}$PEPTIDE1,PEPTIDE1,6:R3-13:R3$$$V2.0) | <1 | 0.25 | 0.125 | 0.125 |
| CC[C@H](C)[C@H](NC(=O)[C@@H](NC(=O)[C@@H]1C[C@@H](O)CN1C(=O)[C@@H](N)C(C)C)[C@@H](C)CC)C(=O)N[C@@H](Cc1ccc(O)cc1)C(=O)N[C@@H]1C(=O)N[C@@H](CC(N)=O)C(=O)N[C@@H](CCCNC(=N)N)C(=O)N[C@@H](CCN)C(=O)N[C@@H]([C@@H](C)O)C(=O)N[C@H](CCN)C(=O)N[C@@H](CCCN)C(=O)N[C@H](C(=O)N[C@@H](CCN)C(=O)N[C@@H](CCCNC(=N)N)C(=O)N[C@@H](Cc2ccc(O)cc2)C(=O)O)CSSC1(C)C [Example 78, Val-Hyp-Ile-Ile-Tyr-Pen-Asn-Arg-Dab-Thr-^DDab-Orn-Cys-Dab-Arg-Tyr] (HELM PEPTIDE1{V.[Hyp].I.I.Y.[Pen].N.R.[Dab].T.[NCC[C@@H](N[*:1])C(=O)[*:2]].[Orn].C.[Dab].R.Y}$PEPTIDE1,PEPTIDE1,6:R3-13:R3$$$V2.0) | <1 | 0.125 | 0.0625 | 0.0625 |
